Test results taken from paper PMC2630366 (The Journal of pharmacology and experimental therapeutics, 2008).
Read-outs that look alike come from different tables or passages of the source. Where no end group is shown, it is not given here.

Columns and labels:
native hPAR2 = target: T1, native hPAR2 (Homo sapiens, UniProt P55085); experiment: Selectivity: calcium mobilization, native hPAR2 in A549 cells; type: cell-based
T1 sequence (P55085 26-397): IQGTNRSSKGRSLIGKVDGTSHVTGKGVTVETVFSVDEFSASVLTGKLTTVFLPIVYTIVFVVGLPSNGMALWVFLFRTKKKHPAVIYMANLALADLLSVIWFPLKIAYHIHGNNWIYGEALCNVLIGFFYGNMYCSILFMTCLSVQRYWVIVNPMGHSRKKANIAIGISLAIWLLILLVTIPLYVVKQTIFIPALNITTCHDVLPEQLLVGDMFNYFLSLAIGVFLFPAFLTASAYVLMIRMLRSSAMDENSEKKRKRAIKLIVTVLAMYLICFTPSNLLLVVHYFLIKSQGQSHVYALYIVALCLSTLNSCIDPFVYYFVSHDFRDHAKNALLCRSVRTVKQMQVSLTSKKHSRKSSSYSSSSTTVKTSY

[1] = ref Okamura et al., 2008; cited from earlier work
mice [2] = settings: administered into the amygdala in mice; ref Jungling et al., 2008; cited from earlier work
mice [3] = settings: 50 mgs/kg, ref Okamura et al., 2008; cited from earlier work
Swiss mice = experiment: Mouse righting reflex recovery test, Swiss mice; type: in vivo; settings: diazepam 15 mg/kg i.p., 16 mice per group
NPSR^-/- mice = experiment: Mouse righting reflex recovery test, NPSR^-/- mice; type: in vivo; settings: diazepam 15 mg/kg i.p.
NPSR^+/+ mice = experiment: Mouse righting reflex recovery test, NPSR^+/+ mice; type: in vivo; settings: diazepam 15 mg/kg i.p.

Molecule SLIGKV-NH2 [SLIGKV-NH2] has an EC50 (native hPAR2) of 21.9 µM, an Emax (native hPAR2; A549, read-out: Emax, control) of 449 ± 25% and an Emax (native hPAR2; A549, read-out: Emax, in presence of [D-Cys(tBu)^5]NPS 10 μM) of 433 ± 37%.
For `O=C(NCc1ccc(F)cc1)N1CCN2C(=O)OC(c3ccccc3)(c3ccccc3)C2C1` (centres unmarked) [SHA 68, 3-oxo-1,1-diphenyl-tetrahydro-oxazolo[3,4-a]pyrazine-7-carboxylic acid 4-fluoro-benzylamide], the “blood brain barrier penetration” value [1] is listed as “limited blood brain barrier penetration”, the “effect on anxiety and extinction of conditioned fear responses” value (mice [2]) is listed as “exerts functionally opposing responses” and the “effect on NPS-stimulated locomotion” value (mice [3]) is listed as “able to partially counteract the stimulatory effects of NPS on locomotion”.
With `CN1C(=O)CN=C(c2ccccc2)c2cc(Cl)ccc21` [diazepam] the “percent of animals losing the righting reflex” value (from here on “percent”) (Swiss mice) was 92%, the “percent” value (NPSR^-/- mice; 10-12 mice per group) was 100% and the “sleeping time (time to regain the RR)” value (NPSR^-/- mice; mean ± sem of 10-12 mice) was 211 ± 19 min. The “percent” value (NPSR^+/+ mice; 10-12 mice per group) was 100% and the “sleeping time (time to regain the RR)” value (NPSR^+/+ mice; mean ± sem of 10-12 mice) was 180 ± 18 min.
